Entries after “also recorded” stand apart in the source; their conditions may differ.
What was measured:
Ink4a/Arf−/− BMDMs = test: MTT assay, Nestin-Tv-a;Ink4a/Arf−/− BMDMs; format: cell-based, mouse
Procedure: (§1) Cell growth rate was determined using the MTT cell proliferation kit (Roche). […] Media was changed every 48 hours. BMDM and CRL-2467 cells were supplemented with 10 ng/ml and 30 ng/ml recombinant mouse CSF-1 respectively unless otherwise indicated. Ten μl of MTT labeling reagent was added to each well and then incubated for 4 hours at 37° C., followed by the addition of 100 μl MTT solubilization reagent overnight. The mixture was gently resuspended and absorbance was measured at 595 nm and 750 nm on a SPECTRAMAX 340 pc plate reader (Molecular Devices).

PDG tumor cell lines = test: MTT assay, PDG tumor cell lines; format: cell-based, mouse; settings: concentrations up to 6700 nM
Procedure: (§2) For neurosphere formation the cell pellet was resuspended in neurosphere media consisting of mouse NSC Basal Media, NSC proliferation supplements, 10 ng/ml EGF, 20 ng/ml basic-FGF and 1 mg/ml Heparin (Stem Cell Technologies). Fresh media was added every 72 hours for 2 weeks. Primary neurospheres were collected, mechanically disaggregated to a single cell suspension and propagated by serial passaging. To generate glioma cell lines, secondary neurospheres were dissociated to single cell suspensions and cultivated in DMEM+10% FBS as a monolayer (10). Multiple glioma cell lines were derived from independent mice, denoted GBM1-4 herein. Glioma cells were infected with a pBabe-H2B-mCherry construct as described previously (11).
as §1

[1] = tested on: secondary neurospheres from PDG tumors; test: Secondary neurosphere formation assay; format: cell-based, mouse; settings: concentrations up to 6700 nM
Procedure: as §2
Primary neurospheres were disaggregated to a single cell suspension and 5×10^3 cells were plated in a 6 well plate in neurosphere media in the presence of the CSF-1R inhibitor or DMSO as vehicle. Media was changed every 48 hours. Secondary neurosphere formation was assayed by counting the number of neurospheres obtained after 2 weeks.

[2] = tested on: PDGF-driven gliomas (PDG); test: Long-term survival trial in PDG mice; format: in vivo
established PDG gliomas = test: Short-term 7 day trial on established tumors (MRI, histology); format: in vivo, mouse; settings: for Apoptosis (% CC3+) / Macrophages (% CD68+) / Phagocytic Capacity / Proliferation (% BrdU+Olig2+) / Total DAPI+ Cells / Tumor Cells (% Olig2+) / Vasculature (CD31 MVD): relative to vehicle
Mrc1/CD206 = Mrc1/CD206 expression in BMDMs (flow cytometry, qRT-PCR); format: cell-based, mouse; settings: in vitro, GCM
Procedure: (§3) Media that had been conditioned by glioma tumor cell lines grown in serum free media for 24 hours was passed through 0.22 μm filters to remove cellular debris, and is referred to herein as glioma cell-conditioned media (GCM). GCM was used to stimulate differentiated C57BL/6 WT or β-actin-GFP^+ BMDMs. Control macrophages received fresh media containing 10% FBS and 10 ng/ml recombinant mouse CSF-1.
For mouse primary glioma cultures (containing a mixed population of tumor cells, TAMs, astrocytes etc.; see FIG. 15), 1×10^6 cells were cultivated in DMEM+10% FBS in the presence of the CSF-1R inhibitor or DMSO as vehicle (n=6 independently isolated cultures). For BMDMs, 1×10^6 cells were cultivated in DMEM supplemented with recombinant mouse CSF-1 or GCM in the presence of the CSF-1R inhibitor or DMSO as vehicle. After 48 hours, cells were scraped and washed with FACS buffer. Cells were counted and incubated with 1 μl of Fc Block (BD Pharmingen) per 10^6 cells for at least 15 minutes at 4° C. Cells were then stained with CD45 and CD11b antibodies (Table 7) for 10 minutes at 4° C. and washed with FACS buffer. Cells were fixed and permeabilized using the BD Cytofix/Cytoperm™ kit (BD Biosciences) according to the manufacturer's instructions. Subsequently cells were stained with anti-CD206 antibody (Table 7). […]

[3] = tested on: glioma cells co-cultured with BMDMs; test: Glioma cell / BMDM co-culture cell cycle analysis; format: cell-based, mouse; settings: 670 nM BLZ945, 48 hours
Procedure: as §3
Following collection of trypsinized co-cultured cells, wells were rinsed in additional media and this volume was collected to ensure harvesting of all macrophages, which adhered tightly to cell culture dishes. Samples were then washed once with FACS buffer, followed by incubation for 10 minutes at room temperature in permeabilizing buffer (10 mM PIPES, 0.1 M NaCl, 2 mM MgCl2, 0.1% Triton X-100, pH 6.8) containing 0.1 mg DAPI (Invitrogen). After acquisition on an LSR II flow cytometer (BD) using a UV laser (350-360 nm), cell cycle status of glioma tumor cells was analyzed using the Flow Jo Dean-Jett-Fox program for cell cycle analysis.

CNC(=O)c1cc(Oc2ccc3nc(N[C@@H]4CCCC[C@H]4O)sc3c2)ccn1 [BLZ945]
BMDM survival (Ink4a/Arf−/− BMDMs): blocked the survival
proliferation of PDG tumor cell lines (PDG tumor cell lines): no effect
tumor neurosphere formation (number or size of secondary neurospheres) [1]: no effect; also recorded: does not affect the number or size
tolerability ([2]; 200 mg/kg once daily, up to 26 weeks): well-tolerated
asymptomatic mice with no detectable lesions at end stage ([2]; 26-week endpoint): 55.6%
cohort still alive at trial endpoint (symptom-free survival) ([2]; 26 weeks post-injection, 200 mg/kg once daily from 2.5 weeks): 64.3%
tumor grade ([2]; versus vehicle, long-term survival trial): significantly less malignant tumors
Apoptosis (% CC3+) (established PDG gliomas; BLZ945, Day 3): +17-fold
Macrophages (% CD68+) (established PDG gliomas; BLZ945, Day 3): +3-fold
Phagocytic Capacity (established PDG gliomas; BLZ945, Day 3): +11.5-fold
Proliferation (% BrdU+Olig2+) (established PDG gliomas; BLZ945, Day 3): −91%
Total DAPI+ Cells (established PDG gliomas; BLZ945, Day 3): −72%
Tumor Cells (% Olig2+) (established PDG gliomas; BLZ945, Day 3): −27%
Apoptosis (% CC3+) (established PDG gliomas; BLZ945, Day 7): +6-fold
Macrophages (% CD68+) (established PDG gliomas; BLZ945, Day 7): +2-fold
Phagocytic Capacity (established PDG gliomas; BLZ945, Day 7): +5.0-fold
Proliferation (% BrdU+Olig2+) (established PDG gliomas; BLZ945, Day 7): −67%
Total DAPI+ Cells (established PDG gliomas; BLZ945, Day 7): −80%
Tumor Cells (% Olig2+) (established PDG gliomas; BLZ945, Day 7): −77%
Vasculature (CD31 MVD) (established PDG gliomas; BLZ945, Day 7): −17%
Tumor Volume (Day −1 vs Day 6) (established PDG gliomas; BLZ945, Day 7, start 4.5-40 mm3): +0.68%
Apoptosis (% CC3+) (established PDG gliomas; BLZ945 Large, Day 3): +9-fold
Macrophages (% CD68+) (established PDG gliomas; BLZ945 Large, Day 3): +2-fold
Phagocytic Capacity (established PDG gliomas; BLZ945 Large, Day 3): +7.1-fold
Proliferation (% BrdU+Olig2+) (established PDG gliomas; BLZ945 Large, Day 3): −98%
Total DAPI+ Cells (established PDG gliomas; BLZ945 Large, Day 3): −40%
Tumor Cells (% Olig2+) (established PDG gliomas; BLZ945 Large, Day 3): −14%
Apoptosis (% CC3+) (established PDG gliomas; BLZ945 Large, Day 7): +2-fold
Macrophages (% CD68+) (established PDG gliomas; BLZ945 Large, Day 7): +4-fold
Phagocytic Capacity (established PDG gliomas; BLZ945 Large, Day 7): +6.0-fold
Proliferation (% BrdU+Olig2+) (established PDG gliomas; BLZ945 Large, Day 7): −94%
Total DAPI+ Cells (established PDG gliomas; BLZ945 Large, Day 7): −65%
Tumor Cells (% Olig2+) (established PDG gliomas; BLZ945 Large, Day 7): −73%
Vasculature (CD31 MVD) (established PDG gliomas; BLZ945 Large, Day 7): −67%
Tumor Volume (Day −1 vs Day 6) (established PDG gliomas; BLZ945 Large, Day 7, start >40 mm3): −24.3%
mice with >30% reduction in tumor volume (partial response, RECIST) (established PDG gliomas; BLZ945 Large, tumors >40 mm3, 7 day trial): 6 of 18
reduction of tumor cell proliferation (established PDG gliomas; all groups and time points): 67-98%
treated mice exhibiting a tumor response (histology) (established PDG gliomas; already evident at d3): 100%
average blood vessel length (established PDG gliomas; both treatment groups compared to vehicle): decreased
average density of Olig2+ tumor cells, of total cells (established PDG gliomas; by d7, both CSF-1R inhibitor groups): < 20%
TAM numbers in tumors (established PDG gliomas; compared to vehicle): did not affect TAM numbers
increase in apoptosis (established PDG gliomas; d3): 9-to 17 fold
Iba1+ macrophages that are CSF-1R+ within the tumor (established PDG gliomas; d7): no significant differences
immune cell infiltration, comparisons between treatment groups (established PDG gliomas; day 7, flow cytometry): not significant
microglia in adjacent normal brain (established PDG gliomas; mouse, in vivo): evident microglia depletion
pericyte coverage of the vessels (established PDG gliomas; mouse, in vivo): no significant differences
tumor growth (MRI tumor volume) (established PDG gliomas; starting tumor volume 4.5-40 mm3, 7 day trial): significantly halted tumor growth
increase in Olig2+CC3+ cells engulfed by CD11b+ macrophages (established PDG gliomas; treated groups): 2 to 4 fold
increased phagocytic capacity of macrophages (established PDG gliomas; treated groups): 5 to 11.5 fold
expression of Mrc1/CD206 in BMDMs (Mrc1/CD206): downregulates
increase in tumor cell cycle entry with GCM-preconditioned BMDMs [3]: blocked
